The values that follow are results of earlier work, collected in PMC9076486 (RSC Advances, 2019).

Usually IC50 stands for the concentration that inhibits the measured activity by half.

This data set relates to superoxide anions. The following applies: pH 7.4; for IC50: read-out: IC50 (SOD activity).

Consider `[Cu+2].[O-][Cl+3]([O-])([O-])[O-].[O-][Cl+3]([O-])([O-])[O-]` [Cu(ClO4)2, copper(II) perchlorate], for which the “k cat (SOD activity)” value is given as 2.7 10^6 M^−1 s^−1 and the IC50 was 1100 nM.

Take “CuZn–SOD: native copper–zinc superoxide dismutase enzyme, value from ref. 42”: the “k cat (SOD activity)” value is on record as 430 10^6 M^−1 s^−1 and the IC50 was 10 nM.
